Assay results published in PubChem BioAssay (NCI).
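Grown in 96-well plates, cells were treated for 48 hours with each compound at five concentrations. Insufficient inhibition: endpoint recorded as highest concentration tested. TGI: concentration producing complete growth inhibition.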

What was measured:
Experiment in all cases: inhibition of tumour cell growth, NCI panel, 48 h
[1] = test system: CAKI-1 renal
[2] = test system: HOP-62 NSCLC
[3] = test system: LOX IMVI melanoma
[4] = test system: M14 melanoma
[5] = test system: MCF7 breast
[6] = test system: NCI-H23 lung
[7] = test system: SF-295 CNS
[8] = test system: SNB-19 CNS
[9] = test system: T-47D breast
[10] = test system: U251 CNS

| SMILES | TGI [1] [µM] | TGI [2] [µM] | TGI [3] [µM] | TGI [4] [µM] | TGI [5] [µM] | TGI [6] [µM] | TGI [7] [µM] | TGI [8] [µM] | TGI [9] [µM] | TGI [10] [µM] |
| --- | --- | --- | --- | --- | --- | --- | --- | --- | --- | --- |
| CCOC(=O)Nc1ccc(S(=O)(=O)Nn2cnnc2)cc1 | > 100 | > 100 | > 100 | > 100 | > 100 | > 100 | > 100 | > 100 | > 100 | > 100 |
| NC(=S)NC/C=C/Cl | > 100 | > 100 | > 100 | > 100 | > 100 | > 100 | > 100 | > 100 | > 100 | – |
| Cc1cc(-c2nc3cccc(O)c3s2)ccc1N | 71.4 | > 100 | > 100 | 37.7 | 34.1 | 93 | > 100 | 7.43 | > 100 | > 100 |
| CCN(CC)C(=O)CCN1CC1 | > 10 | > 10 | > 10 | > 10 | > 10 | > 10 | > 10 | > 10 | > 10 | > 10 |
| Cc1cc(S(=O)(=O)/N=C(/NN)Nc2ccc(Cl)cc2)c(S)cc1Cl | 54.3 | 28 | 30.5 | 34.6 | 52 | – | – | 25.3 | 14.8 | 21.7 |
| CCOC1=C(c2ccccc2)N2CCCCC2O1 (configuration not stated) | > 84.2 | 17.6 | 13.8 | 12.1 | 51.9 | > 36.4 | 15.5 | > 100 | 6.82 | > 100 |
| COc1cccc(C2c3cc4c(cc3OC(Nc3ccccc3)C2C)OCO4)c1O (configuration not stated) | 49.1 | 36.9 | 18.9 | 15.1 | > 75 | 45.2 | 18.7 | 74 | > 75.4 | 23.2 |
| O=c1c2nc(-c3ccccc3)oc2n(-c2ccccc2)c(=O)n1-c1ccccc1 | 18.2 | 29.7 | > 46.4 | > 46.4 | > 46.4 | > 46.4 | 42.4 | 36 | > 46.4 | 33.1 |
| CC1=CCC[C@H]2[C@](C)(CC3=CC(=O)C(SCC(C)C)=CC3=O)[C@@H](C)CC[C@]12C | 16.7 | 31 | 24.6 | 34.7 | 37.7 | 25.5 | 34.6 | 34.6 | 12.9 | 42.3 |
| CC1(C)CC[C@]2(C(=O)O)CC[C@]3(C)[C@H](C(=O)C=C4[C@@]5(C)C=C(C#N)C(=O)C(C)(C)[C@@H]5CC[C@]43C)[C@@H]2C1 | 3.46 | 3.28 | 1.1 | 4.32 | 5.14 | 0.628 | 1.97 | 3.64 | 4.34 | 3.01 |
| O=C1/C(=C/c2cccc3ccccc23)CCc2ccc([N+](=O)[O-])cc21 | > 100 | > 100 | > 100 | > 100 | 86.5 | > 100 | 31.1 | 43.7 | > 100 | 39.4 |
| CC(C)(C)C1=C(Br)C(O)(C(C)(C)C)OP1(=O)c1ccccc1 (configuration not stated) | > 100 | > 100 | > 100 | – | 43.1 | > 100 | > 100 | > 100 | > 100 | > 100 |
| CCSC1=CC2(O)N(CCc3ccc(OC)c(OC)c3)C(=O)CC2(C(=O)OC)CC1=O (configuration not stated) | > 100 | 34.7 | 37.3 | 56.4 | 40.3 | 33.2 | > 100 | > 100 | 48.5 | 51.7 |
| COC(=O)Cn1cnc2c(Cl)nc(Nc3ccccc3)nc21 | – | > 100 | 41.4 | > 100 | > 100 | – | > 100 | > 100 | > 100 | > 100 |
| O=C(c1ccc(Cl)cc1)N1CCN=C1c1cc2ccccc2c2ccccc12 | 35.7 | 33.3 | 36.1 | > 100 | 34.2 | 32.7 | 30.5 | 30.5 | 54.4 | 30.5 |
| O=[Se](O)O | 97.1 | 1.95 | > 100 | 23.4 | > 100 | > 94.4 | 1.7 | > 22 | > 62.9 | 2.82 |
| C[C@H](C1CC2(C)OC2(C)C(=O)O1)[C@H]1CC[C@H]2[C@@H]3[C@@H]4O[C@@H]4[C@@]4(O)CC=CC(=O)[C@]4(C)[C@H]3CC[C@]12C (some centres not stated) | > 50 | > 50 | > 50 | > 50 | > 50 | > 50 | > 50 | > 50 | > 50 | > 50 |
| S=C1SC(=Nc2ccccc2)C(=Nc2ccccc2)N1c1ccc2ccccc2c1 | > 100 | > 100 | – | > 100 | > 100 | > 100 | > 100 | > 100 | > 100 | > 100 |
| O=C(O)c1cccc(NC(C(=O)c2ccccc2)c2ccccc2)c1 (configuration not stated) | > 100 | > 100 | > 100 | > 100 | > 100 | > 100 | > 100 | > 100 | > 100 | > 100 |
| CC(C)Oc1cccc(N2C(Nc3ccccc3)=Nc3ccncc3S2(=O)=O)c1 | > 100 | > 100 | 38.5 | > 100 | > 100 | > 100 | 95.1 | > 100 | 90.1 | > 100 |
| Cc1nc(-c2cc3ccccc3oc2=O)cs1 | > 100 | 42 | > 100 | > 100 | > 100 | – | > 100 | > 100 | > 100 | > 100 |
| NCCSCCC(=O)O | > 100 | > 100 | > 93.7 | > 100 | > 100 | > 62.7 | > 92.3 | > 100 | > 84.2 | > 67.4 |
